Results reported in ChEMBL document CHEMBL5724914, “Linking interpersonal differences in gut microbiota composition and drug biotransformation activity” (2024).

Test: (§1) The drug is tested on Z-019 corresponding to rat gut metagenome with ENA study accession number: PRJEB37062 and ENA sample accession number: ERS12561818 for biotransformation under anaerobic condition. The drug concentrations were measured over 9 timepoints collected between 0 and 24 hours of incubation by liquid-chromatography-coupled mass spectrometry (LC–MS)
Conditions: 2 µM
Further: call rule not given here.

Row | SMILES | Bacterial Biotransformation
1 | CCC(=O)NCC[C@@H]1CCc2ccc3c(c21)CCO3 [RAMELTEON] | Compound NOT metabolized
2 | COc1ccc2c3c1O[C@H]1C[C@@H](O)C=C[C@@]31CCN(C)C2 [GALANTAMINE] | Compound NOT metabolized

Test: as §1, with “on Z-017” for “on Z-019”, “to mouse” for “to rat”, “number: ERS12561816” for “number: ERS12561818”
Conditions: 2 µM

Row | SMILES | Bacterial Biotransformation
3 | CCC(=O)NCC[C@@H]1CCc2ccc3c(c21)CCO3 [RAMELTEON] | Compound NOT metabolized
4 | COc1ccc2c3c1O[C@H]1C[C@@H](O)C=C[C@@]31CCN(C)C2 [GALANTAMINE] | Compound NOT metabolized

Test: as §1, with “on Z-016” for “on Z-019”, “to mouse” for “to rat”, “number: ERS12561815” for “number: ERS12561818”
Conditions: 2 µM

Row | SMILES | Bacterial Biotransformation
5 | CCC(=O)NCC[C@@H]1CCc2ccc3c(c21)CCO3 [RAMELTEON] | Compound metabolized
6 | COc1ccc2c3c1O[C@H]1C[C@@H](O)C=C[C@@]31CCN(C)C2 [GALANTAMINE] | Compound NOT metabolized

Test: as §1, with “Z-014” for “Z-019”, “ERS12561814” for “ERS12561818”
Conditions: 2 µM

Row | SMILES | Bacterial Biotransformation
7 | CCC(=O)NCC[C@@H]1CCc2ccc3c(c21)CCO3 [RAMELTEON] | Compound metabolized
8 | COc1ccc2c3c1O[C@H]1C[C@@H](O)C=C[C@@]31CCN(C)C2 [GALANTAMINE] | Compound NOT metabolized

Test: as §1, with “on Z-013” for “on Z-019”, “to rabbit” for “to rat”, “number: ERS12561813” for “number: ERS12561818”
Conditions: 2 µM

Row | SMILES | Bacterial Biotransformation
9 | CCC(=O)NCC[C@@H]1CCc2ccc3c(c21)CCO3 [RAMELTEON] | Compound metabolized
10 | COc1ccc2c3c1O[C@H]1C[C@@H](O)C=C[C@@]31CCN(C)C2 [GALANTAMINE] | Compound NOT metabolized

Test: as §1, with “Z-008” for “Z-019”, “to” for “to rat gut”, “ERS12561808” for “ERS12561818”
Conditions: 2 µM

Row | SMILES | Bacterial Biotransformation
11 | CCC(=O)NCC[C@@H]1CCc2ccc3c(c21)CCO3 [RAMELTEON] | Compound metabolized
12 | COc1ccc2c3c1O[C@H]1C[C@@H](O)C=C[C@@]31CCN(C)C2 [GALANTAMINE] | Compound NOT metabolized

Test: as §1, with “on WLS-310” for “on Z-019”, “to human” for “to rat”, “number: ERS12561785” for “number: ERS12561818”
Conditions: 2 µM

Row | SMILES | Bacterial Biotransformation
13 | CCC(=O)NCC[C@@H]1CCc2ccc3c(c21)CCO3 [RAMELTEON] | Compound metabolized
14 | COc1ccc2c3c1O[C@H]1C[C@@H](O)C=C[C@@]31CCN(C)C2 [GALANTAMINE] | Compound metabolized

Test: as §1, with “on WLS-220” for “on Z-019”, “to human” for “to rat”, “number: ERS12561769” for “number: ERS12561818”
Conditions: 2 µM

Row | SMILES | Bacterial Biotransformation
15 | CCC(=O)NCC[C@@H]1CCc2ccc3c(c21)CCO3 [RAMELTEON] | Compound metabolized
16 | COc1ccc2c3c1O[C@H]1C[C@@H](O)C=C[C@@]31CCN(C)C2 [GALANTAMINE] | Compound metabolized

Test: as §1, with “on WLS-086” for “on Z-019”, “to human” for “to rat”, “number: ERS12561752” for “number: ERS12561818”
Conditions: 2 µM

Row | SMILES | Bacterial Biotransformation
17 | CCC(=O)NCC[C@@H]1CCc2ccc3c(c21)CCO3 [RAMELTEON] | Compound metabolized
18 | COc1ccc2c3c1O[C@H]1C[C@@H](O)C=C[C@@]31CCN(C)C2 [GALANTAMINE] | Compound metabolized

Test: as §1, with “on WLS-073” for “on Z-019”, “to human” for “to rat”, “number: ERS12561749” for “number: ERS12561818”
Conditions: 2 µM

Row | SMILES | Bacterial Biotransformation
19 | CCC(=O)NCC[C@@H]1CCc2ccc3c(c21)CCO3 [RAMELTEON] | Compound NOT metabolized
20 | COc1ccc2c3c1O[C@H]1C[C@@H](O)C=C[C@@]31CCN(C)C2 [GALANTAMINE] | Compound NOT metabolized

Test: as §1, with “on WLS-038” for “on Z-019”, “to human” for “to rat”, “number: ERS12561745” for “number: ERS12561818”
Conditions: 2 µM

Row | SMILES | Bacterial Biotransformation
21 | CCC(=O)NCC[C@@H]1CCc2ccc3c(c21)CCO3 [RAMELTEON] | Compound metabolized
22 | COc1ccc2c3c1O[C@H]1C[C@@H](O)C=C[C@@]31CCN(C)C2 [GALANTAMINE] | Compound NOT metabolized

Test: as §1, with “on WLS-007” for “on Z-019”, “to human” for “to rat”, “number: ERS12561742” for “number: ERS12561818”
Conditions: 2 µM

Row | SMILES | Bacterial Biotransformation
23 | CCC(=O)NCC[C@@H]1CCc2ccc3c(c21)CCO3 [RAMELTEON] | Compound NOT metabolized
24 | COc1ccc2c3c1O[C@H]1C[C@@H](O)C=C[C@@]31CCN(C)C2 [GALANTAMINE] | Compound NOT metabolized

Conditions: human gut metagenome, 24 h, 2 µM

Row | SMILES | Bacterial Biotransformation
25 | CCC(=O)NCC[C@@H]1CCc2ccc3c(c21)CCO3 [RAMELTEON] | Compound metabolized
26 | COc1ccc2c3c1O[C@H]1C[C@@H](O)C=C[C@@]31CCN(C)C2 [GALANTAMINE] | Compound NOT metabolized

Conditions: human gut metagenome, 24 h, 2 µM
Remark: another data set of the same source

Row | SMILES | Bacterial Biotransformation
27 | CCC(=O)NCC[C@@H]1CCc2ccc3c(c21)CCO3 [RAMELTEON] | Compound metabolized
28 | COc1ccc2c3c1O[C@H]1C[C@@H](O)C=C[C@@]31CCN(C)C2 [GALANTAMINE] | Compound NOT metabolized

Conditions: human gut metagenome, 24 h, 2 µM
Remark: another data set of the same source

Row | SMILES | Bacterial Biotransformation
29 | CCC(=O)NCC[C@@H]1CCc2ccc3c(c21)CCO3 [RAMELTEON] | Compound metabolized
30 | COc1ccc2c3c1O[C@H]1C[C@@H](O)C=C[C@@]31CCN(C)C2 [GALANTAMINE] | Compound NOT metabolized

Conditions: human gut metagenome, 24 h, 2 µM
Remark: another data set of the same source

Row | SMILES | Bacterial Biotransformation
31 | CCC(=O)NCC[C@@H]1CCc2ccc3c(c21)CCO3 [RAMELTEON] | Compound NOT metabolized
32 | COc1ccc2c3c1O[C@H]1C[C@@H](O)C=C[C@@]31CCN(C)C2 [GALANTAMINE] | Compound metabolized

Conditions: human gut metagenome, 24 h, 2 µM
Remark: another data set of the same source

Row | SMILES | Bacterial Biotransformation
33 | CCC(=O)NCC[C@@H]1CCc2ccc3c(c21)CCO3 [RAMELTEON] | Compound NOT metabolized
34 | COc1ccc2c3c1O[C@H]1C[C@@H](O)C=C[C@@]31CCN(C)C2 [GALANTAMINE] | Compound NOT metabolized

Conditions: human gut metagenome, 24 h, 2 µM
Remark: another data set of the same source

Row | SMILES | Bacterial Biotransformation
35 | CCC(=O)NCC[C@@H]1CCc2ccc3c(c21)CCO3 [RAMELTEON] | Compound metabolized
36 | COc1ccc2c3c1O[C@H]1C[C@@H](O)C=C[C@@]31CCN(C)C2 [GALANTAMINE] | Compound NOT metabolized

Conditions: human gut metagenome, 24 h, 2 µM
Remark: another data set of the same source

Row | SMILES | Bacterial Biotransformation
37 | CCC(=O)NCC[C@@H]1CCc2ccc3c(c21)CCO3 [RAMELTEON] | Compound metabolized
38 | COc1ccc2c3c1O[C@H]1C[C@@H](O)C=C[C@@]31CCN(C)C2 [GALANTAMINE] | Compound NOT metabolized

Conditions: human gut metagenome, 24 h, 2 µM
Remark: another data set of the same source

Row | SMILES | Bacterial Biotransformation
39 | CCC(=O)NCC[C@@H]1CCc2ccc3c(c21)CCO3 [RAMELTEON] | Compound metabolized
40 | COc1ccc2c3c1O[C@H]1C[C@@H](O)C=C[C@@]31CCN(C)C2 [GALANTAMINE] | Compound metabolized
